Legend:
[1] = system: Polθ foci in G2, wild-type cells; assay: Polθ foci in G2; type: cell-based, human; conditions: aphidicolin 0.4 to 1.6 μM
Procedure: (§1) Cells grown on coverslips were fixed for 15 min in 2% paraformaldehyde, permeabilized for 10 min in 0.5% Triton X-100, blocked for 30 min in BSA 5%, 0.1% Triton X-100, immunostained for 1 h with primary antibodies, 45 min with secondary antibodies (Highly Cross-Adsorbed Secondary Antibodies Alexa Fluor, ThermoFisher Scientific) and mounted Vectashield mounting medium containing DAPI (Vector Laboratories). The same protocol was applied to mitotic cells, which were collected by shake off and centrifuged onto glass slides using a cytospin centrifuge (400g, 5 min) before fixation. […] Biotin azide-EdU click-it reaction was performed after fixation and permeabilization by incubating cells with a mix of Picolyl biotin, CuSO4, THPTA (Jena Bioscience) and sodium ascorbate in PBS for 30 min in the dark followed by an incubation with streptavidin conjugated Alex fluor 647 antibody (ThermoFisher Scientific) during 1 h at room temperature. Images were taken at 60× or 100× magnification using Upright Spinning disk Confocal Microscope (Roper/Zeiss) or at 40× magnification using DeltaVision (Deconvolution) Image Restoration Microscope. All images were taken with a Z-stack of 0.4 μM on 8 μM range around focus and projected using maximum intensity projection. Images were analysed using the Fiji software. […] Images were mounted in SoftWoRx and analysed using the Fiji software (1.53c). […]

mitotic BRCA2^−/− cells [2] = assay: Metaphase spreads, chromosomal abnormalities; type: cell-based, human; conditions: Rucaparib, 1 h in mitosis
Procedure: Cells were blocked in G2 with RO3306 (5 μM) for 16 h, released, then blocked in mitosis by nocodazole and subsequently treated with Rucaparib for 1 h. After shake off, mitotic cells were centrifuged and subsequently resuspended in a pre-warmed hypotonic solution (0.075 M KCl) and maintained at 37 °C for 15 min. Cells were then centrifuged, and pellets were fixed in fresh methanol and stored at −20 °C. After metaphase spreading, air-dried slides were stained with a Gurr/Giemsa/Acetone solution (Gibco, 10582013; Giemsa (KaryoMAX Giemsa stain solution, Gibco, 10092013)) for 5 min and then rinsed twice with Gurr buffer. Slides were air-dried and neo-mounted with anhydrous mounting medium (Merck, 109016). Images were acquired at 100× magnification using DeltaVision (Deconvolution) Image Restoration Microscope.

BRCA2^−/− cells = assay: Clonogenic survival, BRCA2^−/−; type: cell-based, human; conditions: Rucaparib 1 μM, 1 h in mitosis
Procedure: (§2) For mitotic cells: cells were blocked in G2 using RO3306 (5 μM), released, then blocked in mitosis by nocodazole and subsequently seeded for clonogenic survival. Polθ-mAID cells were blocked 4 h in RO3306 (5 μM) with or without IAA (500 μM) and released in nocodazole with or without IAA for 1 h. In the case of PARPi treatment, cells were blocked 16 h in RO3306 (5 μM) and released in nocodazole with or without Rucaparib (1 μM) for 1 h. After shake off, mitotic cells were washed twice with warm media, counted and seeded for clonogenic survival. For interphase cells: growing cells were treated with IAA (500 μM), or Rucaparib (1 μM) for indicated time, washed twice with warm media and counted. For clonogenic assay upon siRNA transfection, 150,000 cells were plated per well of a 6-well plate and transfected the same day with indicated siRNA. The day after, cells were washed twice, counted and seeded for clonogenic survival. For each condition, two concentrations of cells (BRCA2^−/− cells: 500 and 2000 cells; wild-type cells: 50 and 150 cells) were seeded per well of a 6-well plate. Finally, 10 to 14 days after seeding, colonies were stained with blue methylene (Sigma, 1808) for 2 h at room temperature, washed in water, air-dried overnight and scored manually.

mitotic BRCA2^−/− cells [3] = assay: γH2AX / DSB formation in mitotic cells; type: cell-based, human; conditions: Rucaparib 1 μM, 1 h in mitosis
Procedure: Cells grown on coverslips were fixed for 15 min in 2% paraformaldehyde, permeabilized for 10 min in 0.5% Triton X-100, blocked for 30 min in BSA 5%, 0.1% Triton X-100, immunostained for 1 h with primary antibodies, 45 min with secondary antibodies (Highly Cross-Adsorbed Secondary Antibodies Alexa Fluor, ThermoFisher Scientific) and mounted Vectashield mounting medium containing DAPI (Vector Laboratories). The same protocol was applied to mitotic cells, which were collected by shake off and centrifuged onto glass slides using a cytospin centrifuge (400g, 5 min) before fixation. […] Biotin azide-EdU click-it reaction was performed after fixation and permeabilization by incubating cells with a mix of Picolyl biotin, CuSO4, THPTA (Jena Bioscience) and sodium ascorbate in PBS for 30 min in the dark followed by an incubation with streptavidin conjugated Alex fluor 647 antibody (ThermoFisher Scientific) during 1 h at room temperature. Images were taken at 60× or 100× magnification using Upright Spinning disk Confocal Microscope (Roper/Zeiss) or at 40× magnification using DeltaVision (Deconvolution) Image Restoration Microscope. All images were taken with a Z-stack of 0.4 μM on 8 μM range around focus and projected using maximum intensity projection. Images were analysed using the Fiji software. All scale bars represent 5 μm unless stated otherwise.

[4] = system: Polθ recruitment to mitotic DSBs; assay: Polθ recruitment to laser microirradiated stripes in mitosis; type: cell-based, human; conditions: PARPi (Rucaparib), laser microirradiation
Procedure: Laser micro-irradiation was performed with a two-photon Ti:Saphire laser (Mai Tai DeepSee, Spectra Physics) at 800 nm with 20% power (from 2.1 W) on an inverted laser scanning confocal microscope equipped with spectral detection and a multi-photon laser (LSM880NLO/Mai Tai Laser, Zeiss, Spectra Physics), using a 40× objective NA1.3 oil DICII PL APO (420852-9870). Images were analysed using the ‘plot Z-axis profile’ function of Fiji (version 2.1.0/1.53c). X-ray irradiations were performed using the CIXD Dual Irradiator (RadeXp platform, Institut Curie).

wild-type cells = assay: Clonogenic survival, wild-type; type: cell-based, human; conditions: Rucaparib 1 μM, 1 h in mitosis
Procedure: as §2

mitotic end joining = assay: Mitotic end-joining repair assay (extrachromosomal substrate, qPCR); type: cell-based, human; conditions: PLK1i (Volasertib, 200 nM), mitotic cells, substrate 150 ng, 1.5 h
From the text: To assess mitotic end-joining repair, a DNA repair substrate was designed to mimic resected DNA ends containing four microhomologies, as previously described. The repair substrate was built by ligating a PCR product (GFP sequence) to DNA oligonucleotide duplexes on both sides. The PCR product (747 bp) was amplified from a GFP sequence (PCAG vector, Addgene) using the following oligonucleotide sequences (Fwd core GFP: […], Rev core GFP: […]), digested by the BsaI-HF v2 enzyme (NEB) to reveal 4 nucleotides (nts) complementary to the DNA oligonucleotide duplexes and finally, purified (Gel and PCR cleanup kit Macherey-Nagel). In parallel, two oligonucleotide duplexes (1 and 2) with ~70 nts overhangs were made after annealing (95 °C 10 min, 25 °C 30 min) of the following oligonucleotides. Oligonucleotides for duplex 1 (17 nt dsDNA, 69 nt ssDNA): oligo 1-A, […]; oligo 1-B, […]. Oligonucleotides for duplex 2 (15 nt dsDNA, 71 nt ssDNA): oligo 2-A, […]; oligo 2-B: […]. […]
To measure DNA repair efficiency, a qPCR was performed both on the GFP sequence (to control for the DNA repair substrate transfection) as well as on potential end-joining repair products. Mitotic end-joining repair efficiency was calculated using ΔΔCt between GFP qPCR and end-joining qPCR using SYBR Green Master Mix (ThermoFisher Scientific).

Polθ phosphorylation = assay: Label-free MS quantification of Polθ phospho-sites in mitotic HeLa GFP-Polθ cells; type: cell-based, Homo sapiens; conditions: nocodazole 16 h, volasertib during last hour, IP 500 mM NaCl, five experiments
Procedure: For the identification of Polθ binding partners by mass spectrometry, Polθ immunoprecipitation was performed as described above in 5 mg of nuclear extract of HEK-293T NeonGreen-POLQ knock-in cells. Lysates were incubated with mNeonGreen-Trap Magnetic Agarose beads (Chromotek) for 2 h at 4 °C and beads were washed twice with 150 mM NaCl buffer, once with 300 mM NaCl and three times in 25 mM ammonium bicarbonate. Finally, beads were resuspended in 100 µl 25 mM ammonium bicarbonate and digested by adding 0.2 μg of trypsin/LysC (Promega) for 1 h at 37 °C. Samples were then loaded into custom-made C18 StageTips packed by stacking one AttractSPE disk (SPE-Disks-Bio-C18-100.47.20 Affinisep) and 2 mg beads (186004521 SepPak C18 Cartridge Waters) into a 200 µl micropipette tip for desalting. Peptides were eluted using a ratio of 40:60 MeCN:H2O + 0.1% formic acid and vacuum concentrated to dryness. Peptides were reconstituted in injection buffer (0.3% TFA) before liquid chromatography–tandem mass spectrometry (LC–MS/MS) analysis by using an RSLCnano system (Ultimate 3000, Thermo Scientific) coupled to an Orbitrap Exploris 480 mass spectrometer (Thermo Scientific) as described previously. Mass spectrometry analysis was performed on three independent experiments. NeonGreen-Trap Magnetic Agarose beads incubated in HEK native cell extracts were used as control. For Polθ phosphorylated sites identification by mass spectrometry, Hela cells expressing GFP–Polθ were blocked 16 h in nocodazole. DMSO or Volasertib was added during the last hour of nocodazole treatment. 5 mg of nuclear extract were incubated with GFP Trap Magnetic Agarose beads (Chromotek) for 2 h at 4 °C and beads were washed once with 150 mM NaCl buffer, twice with 300 mM NaCl and twice with 500 mM NaCl buffer. Finally, beads were resuspended in 100 µl 25 mM Ammonium bicarbonate and digested by adding 0.2 μg of trypsin/LysC (Promega) for 1 h at 37 °C. Samples were then desalted and peptides were reconstituted in injection buffer before LC–MS/MS analysis as described previously in the Polθ binding partners identification. Mass spectrometry analysis was performed on five independent experiments. GFP Trap Magnetic Agarose beads incubated in HeLa native cell extracts were used as controls. […] Beads were resuspended, digested and desalted, and then peptides were reconstituted in injections buffer before LC–MS/MS analysis, as described for Polθ binding partners identification and by using an Orbitrap Eclipse mass spectrometer. Mass spectrometry analysis was performed on five independent experiments. Pull-downs of streptavidin beads incubated in nuclear extract of HeLa cells were used as control.

Polθ foci in mitosis = assay: Polθ recruitment to DSBs in mitosis under PLK1 inhibition; type: cell-based, human; conditions: wild-type Polθ expressing cells, PLK1i (Volasertib, 200 nM)
Procedure: as §1

Polθ nuclear bodies = Polθ nuclear bodies in G1 after siRNA; type: cell-based, human; conditions: siRNA knockdown, G1 cells
Procedure: Transfection of siRNA oligonucleotides (Eurofins) was performed using Lipofectamine RNAiMax (ThermoFisher Scientific) following the manufacturer’s instructions.
Cells grown on coverslips were fixed for 15 min in 2% paraformaldehyde, permeabilized for 10 min in 0.5% Triton X-100, blocked for 30 min in BSA 5%, 0.1% Triton X-100, immunostained for 1 h with primary antibodies, 45 min with secondary antibodies (Highly Cross-Adsorbed Secondary Antibodies Alexa Fluor, ThermoFisher Scientific) and mounted Vectashield mounting medium containing DAPI (Vector Laboratories). The same protocol was applied to mitotic cells, which were collected by shake off and centrifuged onto glass slides using a cytospin centrifuge (400g, 5 min) before fixation. […] Biotin azide-EdU click-it reaction was performed after fixation and permeabilization by incubating cells with a mix of Picolyl biotin, CuSO4, THPTA (Jena Bioscience) and sodium ascorbate in PBS for 30 min in the dark followed by an incubation with streptavidin conjugated Alex fluor 647 antibody (ThermoFisher Scientific) during 1 h at room temperature. Images were taken at 60× or 100× magnification using Upright Spinning disk Confocal Microscope (Roper/Zeiss) or at 40× magnification using DeltaVision (Deconvolution) Image Restoration Microscope. […] Images were analysed using the Fiji software. […]

C[C@@]1(CO)[C@H](O)CC[C@@]2(C)[C@H]1CC[C@H]1C[C@@H]3C[C@@]12CC[C@]3(O)CO [aphidicolin, Aphidicolin]
Polθ foci in G2 [1]: Polθ foci in G2 could be induced by replication stress (aphidicolin treatment) in wild-type cells, to the level of that in BRCA2^−/− cells

CNCc1ccc(-c2[nH]c3cc(F)cc4c3c2CCNC4=O)cc1 [Rucaparib]
chromosomal abnormalities (breaks and radials) (mitotic BRCA2^−/− cells [2]): induced the formation of DSBs and chromosomal abnormalities
clonogenic survival / cell killing (BRCA2^−/− cells): sufficient to kill BRCA2^−/−
DSB formation in mitosis (mitotic BRCA2^−/− cells [3]): induced the formation of DSBs
Polθ recruitment to mitotic DSBs [4]: abolished
clonogenic survival / cell killing (wild-type cells): sufficient to kill BRCA2^−/− but not wild-type cells

CC[C@@H]1C(=O)N(C)c2cnc(Nc3ccc(C(=O)N[C@H]4CC[C@H](N5CCN(CC6CC6)CC5)CC4)cc3OC)nc2N1C(C)C [Volasertib]
efficiency of mitotic end joining (mitotic end joining): greatly impaired the efficiency of mitotic end joining
Ratio Nocodazole / Volacertib, phospho-site S1628.S1639 (Polθ phosphorylation): 5.418
Ratio Nocodazole / Volacertib, phospho-site S1594 (Polθ phosphorylation; adj. p 0.00104923): 1.901
Ratio Nocodazole / Volacertib, phospho-site S1094* (Polθ phosphorylation; adj. p 0.0536125, * only re-extracted peptides by MBR): 1.958
Ratio Nocodazole / Volacertib, phospho-site T1755 (Polθ phosphorylation; adj. p 0.0634598): 3.242
Ratio Nocodazole / Volacertib, phospho-site S1436* (Polθ phosphorylation; adj. p 0.115005, * only re-extracted peptides by MBR): 1.887
Ratio Nocodazole / Volacertib, phospho-site S1289 (Polθ phosphorylation; adj. p 0.400471): 3.904
Polθ recruitment to DSBs in mitosis (Polθ foci in mitosis): neither mutant was recruited to DSBs in mitosis (Fig. 3f, Extended Data Fig. 8a and Supplementary Video 4), similar to our observations in wild-type Polθ expressing cells under PLK1 inhibition

CAGGACAGUCUUUCCACGAdTdT (sense CAGGACAGUCUUUCCACGATT; chemistry not fully specified) [53BP1, siRNA targeting 53BP1]
Polθ nuclear body formation (Polθ nuclear bodies): increased Polθ nuclear body formation

Reference: article PMC10499603, “Polθ is phosphorylated by PLK1 to repair double-strand breaks in mitosis” (Nature, 2023)
